As a reminder, the IC50 is the concentration at which inhibition is half-maximal.

Each structure is given as a SMILES string.

The target of the assay is T1, PIP4K2C (Homo sapiens, UniProt Q8TBX8).
T1 sequence (Q8TBX8 1-421): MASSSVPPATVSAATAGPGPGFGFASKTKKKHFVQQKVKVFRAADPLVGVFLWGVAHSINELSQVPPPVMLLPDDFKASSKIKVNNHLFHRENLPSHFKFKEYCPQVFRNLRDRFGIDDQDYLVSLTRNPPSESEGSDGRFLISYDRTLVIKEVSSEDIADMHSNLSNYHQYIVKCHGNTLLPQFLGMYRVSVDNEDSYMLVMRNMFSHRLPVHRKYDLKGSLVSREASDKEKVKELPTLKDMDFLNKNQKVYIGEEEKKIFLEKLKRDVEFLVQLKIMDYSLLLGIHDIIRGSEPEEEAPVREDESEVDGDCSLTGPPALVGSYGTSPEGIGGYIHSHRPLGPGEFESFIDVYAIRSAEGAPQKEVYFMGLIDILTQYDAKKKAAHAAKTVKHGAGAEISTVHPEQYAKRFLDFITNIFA
As to the kind of experiment: Enzyme Binding Assay (KINOMEscan): active site-directed competition binding to an immobilized ligand. Conditions: 11-point dose response, duplicate, top concentration 5 micromolar; read-out: Pip4k2c Kd: IC50. Also on record: purchased Eurofins DiscoverX, San Diego, CA 87-0007-1094. The procedure, abridged:
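Active site-directed competition binding against an immobilized ligand. 11-point dose-response in duplicate, top concentration 5 micromolar; IC50 from a Hill equation fitted by the Levenberg-Marquardt algorithm.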
For `CC(=O)N1CCC[C@H](Nc2ncc(Cl)c(-c3cccc(-c4ccc(F)cc4)n3)n2)C1` [Compound 194, (S)-1-(3-((5-chloro-4-(6-(4-fluorophenyl)pyridin-2-yl)pyrimidin-2-yl)amino)piperidin-1-yl)ethan-1-one], the IC50 was 1000 to 5000 nM.

For `NC(=O)[C@H]1CC[C@H](Nc2ncc(F)c(-c3cccc(-c4cc[nH]c(=O)c4)c3)n2)CC1` [Compound 195, trans-4-((5-fluoro-4-(3-(2-oxo-1,2-dihydropyridin-4-yl)phenyl)pyrimidin-2-yl)amino)cyclohexane-1-carboxamide], the IC50 is below 500 nM.

On to `CC(=O)N1CCC(Nc2ncc(F)c(N3CCCC(c4ccc[nH]c4=O)C3)n2)CC1` (centres unmarked) [Compound 196, 3-[1-[2-[(1-acetyl-4-piperidyl)amino]-5-fluoro-pyrimidin-4-yl]-3-piperidyl]-1H-pyridin-2-one], for which the IC50 is below 500 nM.

In the case of `CC(=O)N[C@H]1CC[C@H](Nc2ncc(F)c(N3CCC[C@@H](C(=O)NC4CC4)C3)n2)CC1` [Compound 197, trans-(R)-1-(2-((4-acetamidocyclohexyl)amino)-5-fluoropyrimidin-4-yl)-N-cyclopropylpiperidine-3-carboxamide], the IC50 is 1000 to 5000 nM.

As to `CC(=O)N[C@H]1CC[C@H](Nc2ncc(F)c(N3CCC[C@H](C(=O)NC4CC4)C3)n2)CC1` [Compound 198, trans-(S)-1-(2-((4-acetamidocyclohexyl)amino)-5-fluoropyrimidin-4-yl)-N-cyclopropylpiperidine-3-carboxamide], the IC50 was in the range of 1000 to 5000 nM.

Consider `CC(=O)N1CCC(Nc2ncc(F)c(N3CCCC(c4ccc(=O)[nH]c4)C3)n2)CC1` (centres unmarked) [Compound 199, 5-(1-(2-((1-acetylpiperidin-4-yl)amino)-5-fluoropyrimidin-4-yl)piperidin-3-yl)pyridin-2(1H)-one], for which the IC50 lay in the range of 500 to 1000 nM.

As for `CC(=O)N1CCC(Nc2ncc(F)c(-c3cccc(-c4ccc(=O)[nH]c4)c3)n2)CC1` [Compound 202, 5-(3-(2-((1-acetylpiperidin-4-yl)amino)-5-fluoropyrimidin-4-yl)phenyl)pyridin-2(1H)-one], the IC50 was below 500 nM.

For `CC(=O)N[C@H]1CC[C@H](Nc2ncc(F)c(-c3cccc(-c4ccc(=O)[nH]c4)c3)n2)CC1` [Compound 203, trans-N-(4-((5-fluoro-4-(3-(6-oxo-1,6-dihydropyridin-3-yl)phenyl)pyrimidin-2-yl)amino)cyclohexyl)acetamide], the IC50 was below 500 nM.

Regarding `NC(=O)[C@@H]1CCC[C@H](Nc2ncc(F)c(-c3cccc(-c4ccc[nH]c4=O)c3)n2)C1` [Compound 204, (1R,3S)-3-((5-fluoro-4-(3-(2-oxo-1,2-dihydropyridin-3-yl)phenyl)pyrimidin-2-yl)amino)cyclohexane-1-carboxamide], the IC50 was below 500 nM.

For `CC(=O)N1CCC(Nc2ncc(F)c(N3CCOCC3)n2)CC1` [Compound 205, 1-(4-((5-fluoro-4-morpholinopyrimidin-2-yl)amino)piperidin-1-yl)ethan-1-one], the IC50 lay within 500 to 1000 nM.

Regarding `CC(=O)N1CCC(Nc2ncc(F)c(-c3cccc(N4CCOCC4=O)c3)n2)CC1` [Compound 206, 4-(3-(2-((1-acetylpiperidin-4-yl)amino)-5-fluoropyrimidin-4-yl)phenyl)morpholin-3-one], the IC50 was below 500 nM.

With `Cc1ccc(=O)n(-c2cccc(-c3nc(N[C@H]4CCC[C@@H](C(N)=O)C4)ncc3F)c2)c1` [Compound 207, (1R,3S)-3-((5-fluoro-4-(3-(5-methyl-2-oxopyridin-1 (2H)-yl)phenyl)pyrimidin-2-yl)amino)cyclohexane-1-carboxamide], the IC50 was below 500 nM.

Turning to `NC(=O)[C@@H]1CCC[C@H](Nc2ncc(F)c(-c3cccc(-n4cc(C(F)(F)F)ccc4=O)c3)n2)C1` [Compound 208, (1R,3S)-3-((5-fluoro-4-(3-(2-oxo-5-(trifluoromethyl)pyridin-1 (2H)-yl)phenyl)pyrimidin-2-yl)amino)cyclohexane-1-carboxamide], the IC50 is below 500 nM.

Take `CC(=O)N1CCC(Nc2ncc(F)c(-c3cccc(N4CCC[C@@H](O)C4)c3)n2)CC1` [Compound 209, (R)-1-(4-((5-fluoro-4-(3-(3-hydroxypiperidin-1-yl)phenyl)pyrimidin-2-yl)amino)piperidin-1-yl)ethan-1-one]: the IC50 was below 500 nM.

Take `CC(=O)N1CCC(Nc2ncc(F)c(-c3cccc(N4CCC[C@H](O)C4)c3)n2)CC1` [Compound 210, (S)-1-(4-((5-fluoro-4-(3-(3-hydroxypiperidin-1-yl)phenyl)pyrimidin-2-yl)amino)piperidin-1-yl)ethan-1-one]: the IC50 was below 500 nM.

`CC(=O)N1CCC(Nc2ncc(F)c(-c3cccc(N4CCC(O)CC4)c3)n2)CC1` [Compound 211, 1-(4-((5-fluoro-4-(3-(4-hydroxypiperidin-1-yl)phenyl)pyrimidin-2-yl)amino)piperidin-1-yl)ethan-1-one]: the IC50 was below 500 nM.

As for `CC(=O)N1CCC(Nc2ncc(F)c(-c3cccc(C(=O)N4CC[C@H](O)C4)c3)n2)CC1` [Compound 212, (S)-1-(4-((5-fluoro-4-(3-(3-hydroxypyrrolidine-1-carbonyl)phenyl)pyrimidin-2-yl)amino)piperidin-1-yl)ethan-1-one], the IC50 is below 500 nM.

For the compound `CC(=O)N1CCC(Nc2ncc(F)c(-c3cccc(C(=O)N4CC[C@@H](O)C4)c3)n2)CC1` [Compound 213, (R)-1-(4-((5-fluoro-4-(3-(3-hydroxypyrrolidine-1-carbonyl)phenyl)pyrimidin-2-yl)amino)piperidin-1-yl)ethan-1-one], the IC50 is below 500 nM.

In the case of `CC(=O)N1CCC(Nc2ncc(F)c(-c3cccc(C(=O)N4CC(O)C4)c3)n2)CC1` [Compound 214, 1-(4-((5-fluoro-4-(3-(3-hydroxyazetidine-1-carbonyl)phenyl)pyrimidin-2-yl)amino)piperidin-1-yl)ethan-1-one], the IC50 is below 500 nM.

`CC(=O)N1CCC(Nc2ncc(F)c(N3CCC[C@H](C(=O)N4CC[C@H](O)C4)C3)n2)CC1` [Compound 215, 1-(4-((5-fluoro-4-((S)-3-((S)-3-hydroxypyrrolidine-1-carbonyl)piperidin-1-yl)pyrimidin-2-yl)amino)piperidin-1-yl)ethan-1-one]: the IC50 was in the range of 1000 to 5000 nM.

On to `CC(=O)N1CCC(Nc2ncc(F)c(N3CCC[C@H](C(=O)N4CC[C@@H](O)C4)C3)n2)CC1` [Compound 216, 1-(4-((5-fluoro-4-((S)-3-((R)-3-hydroxypyrrolidine-1-carbonyl)piperidin-1-yl)pyrimidin-2-yl)amino)piperidin-1-yl)ethan-1-one], for which the 50% inhibitory concentration (IC50) was 500 to 1000 nM.

With `CC(=O)N1CCC(Nc2ncc(F)c(-c3cccc(C(=O)N4CCC(O)(CO)CC4)c3)n2)CC1` [Compound 217, 1-[4-[[5-fluoro-4-[3-[4-hydroxy-4-(hydroxymethyl)piperidine-1-carbonyl]phenyl]pyrimidin-2-yl]amino]-1-piperidyl]ethanone], the concentration for half-maximal inhibition (IC50) was below 500 nM.

As for `CC(=O)N1CCC(Nc2ncc(F)c(-c3cccc(C(=O)N4CCC(O)(CN)CC4)c3)n2)CC1` [Compound 218, 1-(4-((4-(3-(4-(aminomethyl)-4-hydroxypiperidine-1-carbonyl)phenyl)-5-fluoropyrimidin-2-yl)amino)piperidin-1-yl)ethan-1-one], the IC50 is below 500 nM.

Source of the values: patent publication US20260355196A1, “INHIBITORS AND DEGRADERS OF PIP4K PROTEIN” (Larkspur Biosciences, Inc., priority 2023, published 2026).
